Series [1] has as its system valproic acid (VPA)-induced mouse model of autism. Kind of series: VPA-induced mouse model of autism (three-chamber, male-female interaction, marble burying, grooming). Type of series: in vivo. The conditions noted are these: VPA mice, 0.2 mg/kg i.p. seven days. The source says: Right panel, quantification of the social novelty index in mice treated with vehicle (WT, n=15, VPA, n=10) or 3.17 (WT, n=9, VPA, n=12); two-way ANOVA, Tukey's post hoc test, *P<0.05, **P<0.01. (b) Quantification of the interaction time in mice treated with vehicle (WT, n=15, VPA, n=10) or 3.17 (WT, n=10, VPA, n=11); two-way ANOVA, Tukey's post hoc test, **P<0.01. (c) Quantification of the number of marbles buried by mice treated with vehicle (WT, n=17, VPA, n=17) or 3.17 (WT, n=13, VPA, n=13); two-way ANOVA, Tukey's post hoc test, *P<0.05, **P<0.01. (d) Quantification of grooming time for mice treated with vehicle (WT, n=20, VPA, n=17) or 3.17 (WT, n=13, VPA, n=13); two-way ANOVA on Ranks, Tukey's post hoc test, *P<0.05, **P<0.01.
In vivo assessment of the efficacy of the selected NKCC1 inhibitor in the valproic acid (VPA)-induced mouse model of autism, to assess its ability to rescue altered social interaction. The VPA model was obtained by treating pregnant C57bl/6j dams at 12.5 days of pregnancy with 600 mg/kg (i.p.) of VPA dissolved in PBS. […] As control, the offspring of C57bl/6j dams treated at 12.5 with PBS was used. To assess the efficacy of the compound to restore social deficits, juvenile male offspring of both the VPA- and PBS-treated dams were treated (i.p injection) with 0.2 mg/kg of compound 3.17 dissolved in PBS or 2% DMSO dissolved in PBS as control for seven days. Then, mice were tested for their social ability and for repetitive behaviors in different tests. The social ability was tested in the three-chamber test (Silverman et al., 2010). In the three-chamber test, mice are singularly placed in a three-chamber box with openings between the chambers. After ten minutes of free exploration, a never-before-met intruder is placed under one pencil cup in one chamber and an empty pencil cup was placed in the other chamber. […] The social novelty index is measured as follows: [(time spent with the new intruder−time spent with the old intruder)/(time spent with the new intruder+time spent with the old intruder) %].
The sociability during male-female interaction was then assessed (Drapeau et al., 2018). In this test the tested mouse, after 5 minutes of habituation, is evaluated for its approach to a female intruder mouse that is placed for 5 minutes in the same cage. The time spent interacting is calculated as a measure of male-female social interaction. […] Finally, repetitive behaviors were evaluated in two different tests. […] The repetitive behavior is evaluated as the number of marbles buried in the litter. […] During the test, the mouse is placed in a cylindrical support and after 10 minutes of habituation, the repetitive grooming activity is measured during 5 minutes.

Series [2] can be described thus: Phase I metabolism in liver microsomes. Type of series: in vitro ADME. The conditions noted are these: read-out: t½ in liver microsomes. As to the method:
(§1) FIG. 3: Assessment of drug-likeness of a selected compound, compound 3.17. a) Chemicophysical properties of bumetanide and compound 3.17 by LC-MS analysis. b) Comparison between urinary volume of WT mice (C57Bl/6N) two hours after treatment with bumetanide (0.2 mg/kg) and compound 3.17 (0.2 mg/kg). c) Assessment of urinary volume of Ts65Dn mouse model of Down syndrome and WT littermates two hours after treatment with compound 3.17 (0.2 mg/kg). Number in parenthesis: number of analyzed animals. Data represents mean±sem, and they are presented as % of the respective vehicle.
(§2) The selected NKCC1 inhibitor compound 3.17 has been evaluated for solubility in aqueous buffers, and stability in plasma and phase I metabolism in vitro (FIG. 3a).

A short description of series [3]: Stability in plasma. The class given is in vitro ADME. The conditions noted are these: resistance to hydrolysis, read-out: t½ in plasma. The method, then: as §1, §2

Turning to `CN(C)S(=O)(=O)c1cc(C(=O)O)ccc1NCCCCCCCC(F)(F)F` [Compound 3.17, 3-(dimethylsulfamoyl)-4-(8,8,8-trifluorooctylamino) benzoic acid], in series [1], the male-female interaction entry is listed as “completely restored” and the “repetitive behaviors (marbles buried, grooming time)” value is reported as “completely restored”. For the same compound, in series [1] (three-chamber test), the sociability index result is recorded as “completely restored” and the social novelty index result is reported as “completely restored”. For the same compound, in series [2], the half-life was over 60 min. Moreover, in series [3], the half-life was over 120 min.
